# Reference: patent US20070009437A1, “Intracellular trapping of radionuclides by enzyme-mediated reduction” (priority 2003, published 2007)
# Tests used:
# [1] = test system: E. coli BL21(DE3) Star transformed with pET-Duet + pACYCDuet (control); assay: Tc99m O4- reduction assay, control bacteria with Duet vectors only; assay type: cell-based, Escherichia coli; conditions: 15 mCi, aerobic
# Procedure: (§1) E. coli BL21(DE3) Star (Invitrogen) was transformed with various constructs and grown on the appropriate selective media agars. In case of periplasmic fusion hydrogenases, dual co-transformation was accomplished using antibiotic selection markers, ampicillin and chloramphenicol. Transformed cells were grown at 37° C. in a standard laboratory shaker under aerobic conditions to an optical density at 600 nm (O.D.600) of 0.6 and then induced with 1 mM IPTG under a standard T7 promoter induction protocol. One ml aliquots of cells were collected at 0, 1, 2, and 3 hour time points following induction and mRNA was extracted using a bacterial mRNA extraction mini kit (Qiagen). 100 ng of the mRNA samples was DNAse treated (Invitrogen) according to the manufacturer's protocol. RNA quality was then analyzed using an Agilent 2100 Bioanalyzer, prokaryotic total RNA nano-chip. RT-PCR reactions were performed using the internal specific primers for HydA, Forward: 5′-[…] (SEQ ID NO:8); Reverse: 5′-[…] (SEQ ID NO:9) and Hyd B, Forward: 5′-[…] (SEQ ID NO:10), Reverse 5′-[…] (SEQ ID NO:11) and one step RT-PCR kit (Qiagen).
# (§2) Tc99m O4—reduction assays were performed as follows: Bacterial cultures were grown to an O.D.600 of 0.6 in a simple rotary shaker under aerobic conditions. HydA and HydB genes were induced with 1 mM IPTG in the presence of 15 mCi of 99mTc Pertechnetate and ten ml aliquots of bacterial cultures were collected at 0, 1, 2, and 3 hr time points. The cells were spun down at 3500 rpm for 15 min, washed twice with 5 ml phosphate buffered saline (PBS) and the supernatant was collected and saved for later analysis. Control bacteria transformed with Duet vectors only were treated as controls. Total counts in the total cell pellet, 100 μl of media supernatant, and 1 ml of each wash, were then assayed using a gamma counter. Ten microliters of 99mTc pertechnetate was assayed to provide internal control between experiments.
# (§3) In FIG. 12, the amount of radioactivity recorded in counts per minute was divided by the total number of counts expected per 10 ml of culture. The experimental values were determined by subtracting the control bacterial normalized CPM from the normalized CPM from the hydrogenase vector(s) transformed bacteria. The values obtained were therefore normalized counts per minute for the different cell lines.
# [2] = test system: DsbA-HydA + DsbC-HydB (pACYC-DsbA-HydA + pETDuet/DsbC-HydB) in E. coli BL21(DE3) Star; assay: Tc99m O4- reduction assay, bacteria with both periplasmic Dsb fusion vectors; assay type: cell-based, Desulfovibrio desulfuricans; conditions: for Counts Per Minute, cell pellet, DSB FUSIONS: 15 mCi, aerobic
# Text: (§4) Bacterial expression vectors were designed following standard molecular biology techniques. D. desulfuricans hydrogenase genes, Hyd A and Hyd B were PCR amplified using primers incorporated with unique restriction sites at the ends. The genes were inserted into pET-Duet1 (Novagen) vector under T7 RNA polymerase driven promoter through sequential restriction digestion and ligation. Periplasmic signal sequences were extracted from vectors pET-39b and pET-40b (Novagen) and ligated in-frame with start codon deficient Hydrogenase genes. Mammalian expression vectors were designed with mitochondrial signal sequences from pCMV/myc/mito, fused in frame by PCR amplification and ligation with both HydA and HydB genes. Additionally, the myc epitope was added in-frame at the C-terminus to facilitate subcellular localization and immunoprecipations.
# as §1, §2, §3
# (§5) However, this increase was negligible when compared to cells containing both HydA and HydB in separate (individual) Dsb fusion vector constructs.
# [3] = test system: T. vaginalis (ATCC No. 30001); assay: Trapping of Tc99m pertechnetate in Trichomonas vaginalis (intracellular radioactivity, gamma counter); assay type: cell-based; conditions: 2 μCi, 37° C., 2×10^6 cells per tube, washed pellet
# Procedure: T. vaginalis (ATCC No. 30001) was cultured in ATCC LYI entamoeba medium (ATCC No. PRA-2154) at 37° C. in test tubes to a titer of 2×10^6 cells per tube. Three test tubes were included in each group. T. vaginalis cells were incubated at 37° C. for a period of time after inoculation of 2 μci of Technetium 99m pertechnetate in each test tube. At end of incubation, the cells were harvested by centrifugation at […], for 10 minutes. The cellular pellet was washed three times with PBS to remove extra-cellular radioactivity. Intracellular radioactivity of the cells was counted with a gamma counter.
# [4] = test system: DsbA-HydA fusion (pACYC-DsbA-HydA alone) in E. coli BL21(DE3) Star; assay: Tc99m O4- reduction assay, bacteria with pACYC-DsbA-HydA alone; assay type: cell-based, Desulfovibrio desulfuricans; conditions: 15 mCi, aerobic
# Text: as §4, §1
# Tc99m O4—reduction assays were performed as follows: Bacterial cultures were grown to an O.D.600 of 0.6 in a simple rotary shaker under aerobic conditions. HydA and HydB genes were induced with 1 mM IPTG in the presence of 15 mCi of 99mTc Pertechnetate and ten ml aliquots of bacterial cultures were collected at 0, 1, 2, and 3 hr time points. The cells were spun down at 3500 rpm for 15 min, washed twice with 5 ml phosphate buffered saline (PBS) and the supernatant was collected and saved for later analysis. […]
# In FIG. 12, the amount of radioactivity recorded in counts per minute was divided by the total number of counts expected per 10 ml of culture. The experimental values were determined by subtracting the control bacterial normalized CPM from the normalized CPM from the hydrogenase vector(s) transformed bacteria. […]
# [5] = test system: D. desulfuricans hydrogenase HydA/HydB (pETDuet/HydA/HydB) in E. coli BL21(DE3) Star; assay: Tc99m O4- reduction assay, bacteria with pETDuet/HydA/HydB; assay type: cell-based, Desulfovibrio desulfuricans; conditions: for Counts Per Minute, cell pellet, HYDA/B: 15 mCi, aerobic
# Text: as §4, §1, §2, §3
# [6] = test system: DsbC-HydB fusion (pETDuet/DsbC-HydB alone) in E. coli BL21(DE3) Star; assay: Tc99m O4- reduction assay, bacteria with pETDuet/DsbC-HydB alone; assay type: cell-based, Desulfovibrio desulfuricans; conditions: for Counts Per Minute, cell pellet, FB: 15 mCi, aerobic
# Text: as §4, §1, §2, §3, §5
compound,measurement,setting,value
[O]=[99Tc](=[O])(=[O])[O-] [Technetium 99m pertechnetate],"Counts Per Minute, cell pellet, D + P (control)",[1]; 0 hr after 1 mM IPTG induction,2777 cpm
same,"Counts Per Minute, cell pellet, D + P (control)",[1]; 1 hr after 1 mM IPTG induction,6939 cpm
same,"Counts Per Minute, cell pellet, D + P (control)",[1]; 2 hr after 1 mM IPTG induction,10045 cpm
same,"Counts Per Minute, cell pellet, D + P (control)",[1]; 3 hr after 1 mM IPTG induction,11944 cpm
same,"Counts Per Minute, cell pellet, DSB FUSIONS",[2]; 0 hr after 1 mM IPTG induction,4185 cpm
same,"Counts Per Minute, cell pellet, DSB FUSIONS",[2]; 1 hr after 1 mM IPTG induction,38129 cpm
same,"Counts Per Minute, cell pellet, DSB FUSIONS",[2]; 2 hr after 1 mM IPTG induction,80021 cpm
same,"Counts Per Minute, cell pellet, DSB FUSIONS",[2]; 3 hr after 1 mM IPTG induction,56611 cpm
same,99mTc association with the bacteria,[2]; DsbA and DsbC ligated in fusion to Hyd A and Hyd B,increased 99mTc association with the bacteria
same,RADIOACTIVITY (dpm) in T. vaginalis,[3]; incubation 30 minutes,24904 dpm
same,RADIOACTIVITY (dpm) in T. vaginalis,[3]; incubation 45 minutes,45127 dpm
same,RADIOACTIVITY (dpm) in T. vaginalis,[3]; incubation 12 hours,1915843 dpm
same,"Counts Per Minute, cell pellet, FA",[4]; 0 hr after 1 mM IPTG induction,7074 cpm
same,"Counts Per Minute, cell pellet, FA",[4]; 1 hr after 1 mM IPTG induction,8503 cpm
same,"Counts Per Minute, cell pellet, FA",[4]; 2 hr after 1 mM IPTG induction,15323 cpm
same,"Counts Per Minute, cell pellet, FA",[4]; 3 hr after 1 mM IPTG induction,23935 cpm
same,"Counts Per Minute, cell pellet, HYDA/B",[5]; 0 hr after 1 mM IPTG induction,2074 cpm
same,"Counts Per Minute, cell pellet, HYDA/B",[5]; 1 hr after 1 mM IPTG induction,5543 cpm
same,"Counts Per Minute, cell pellet, HYDA/B",[5]; 2 hr after 1 mM IPTG induction,8031 cpm
same,"Counts Per Minute, cell pellet, HYDA/B",[5]; 3 hr after 1 mM IPTG induction,12339 cpm
same,trapping in vitro as compared to control cells,[5]; bacteria overexpressing HydA and HydB genes,significantly higher trapping
same,radioactivity within cells relative to control cells,[5]; pETDuet1/HydA/HydB vector vs pET-Duet+PAcYCDuet vector,noticeable increase in radioactivity
same,"Counts Per Minute, cell pellet, FB",[6]; 0 hr after 1 mM IPTG induction,4643 cpm
same,"Counts Per Minute, cell pellet, FB",[6]; 1 hr after 1 mM IPTG induction,40064 cpm
same,"Counts Per Minute, cell pellet, FB",[6]; 2 hr after 1 mM IPTG induction,55201 cpm
same,"Counts Per Minute, cell pellet, FB",[6]; 3 hr after 1 mM IPTG induction,77462 cpm
same,entrapment of radionuclide by cells,[6]; Hyd B-Dsb fusion alone vs both fusion hydrogenase products together,higher than that of both fusion hydrogenase products together
